Structures can show the parent of a compound that is named as a salt.
Assays:
[1] = system: signaling pathways in OCI-Ly3 and HBL-1 cells; experiment: Western blot modulation of intracellular signaling pathways; format: cell-based, human; conditions: 24 h post treatment
Protocol: Modulation of intracellular pathways were assessed by Western blots at 24 h post treatment with indicated compounds either as single agent or in combination. Antibodies used in this study are AKT (#4685, Cell Signaling), p-AKT (04060, Cell Signaling), ERK (#4695, Cell Signaling), p-ERK (#4376, Cell Signaling), BTK (#3533, Cell Signaling), p-BTK (05082, Cell Signaling), IκBα (#4812, Cell Signaling), p-IκBα (#AF4809, R&D), p-IKKα/β (02078, Cell Signaling), IKKβ (02370, Cell Signaling).

[2] = system: DLBCL cell lines; experiment: 72-h CellTiter-Glo anti-proliferative assay; format: cell-based, human; conditions: for anti-proliferative activity profile across DLBCL cell lines: panel of 8 DLBCL cell lines; for IC50: Homo sapiens
Protocol: Briefly, cells were plated at 250-2000 cells/well of 384-well plates (based on cell lines) in 20 μL of growth medium. For each cell line assayed, cells were plated into a separate plate for determination of luminescence at the t=0 hours and t=72 hour time points. […] Dose plates for t=72 hour time points were treated with compounds diluted into growth medium in a final volume of 30 μL. Cells were then incubated for 72 hours at 37° C. Luminescence values for the t=72 hour samples were determined by adding 30 μL of Promega CellTiter-Glo solution, placing the cells on a shaker for 10 minutes at room temperature, and then reading the luminescence using a Victor luminometer. For data processing, t=0 values are subtracted from those determined for the t=72 hour time points, for both the treated and untreated samples. Percent differences in luminescence between drug treated and controls are used to determine percent inhibition of growth.

[3] = system: DLBCL; experiment: Initial clinical efficacy in NHL patients (phase I dose-escalation), DLBCL; format: in vivo, human; conditions: DLBCL patient with SD
[4] = system: follicular NHL; experiment: Initial clinical efficacy in NHL patients (phase I dose-escalation), follicular NHL; format: in vivo, human; conditions: patients with PR/patients; PR at end of cycle 2 at 0.8 mg/kg, one case end of cycle 4 at 0.6 mg/kg
Protocol: A phase I dose-escalation study (Patnaik et al, ASH 2012) established the maximum tolerated dose of COMPOUND OF FORMULA I (0.8 mg/kg) and reported promising activity (6/6 PR) in follicular lymphoma. In the present study we further investigated the activity and safety of COMPOUND OF FORMULA I in patients with indolent or aggressive lymphoma subtypes that have progressed after standard therapy.

[5] = Half-life in mice; conditions: mouse, in vivo, iv
[6] = Phase II study, single agent, safety (adverse events); format: in vivo, human
Protocol: Patients received COMPOUND OF FORMULA I at a dose of 0.8 mg/kg as a 1 hour infusion on days 1, 8 and 15 of a 28-day cycle. Patients continued on therapy until disease progression or unacceptable toxicity.

[7] = system: follicular NHL; conditions: phase I dose-escalation study (Patnaik et al, ASH 2012); cited from earlier work
[8] = phase I dose-escalation study (Patnaik et al, ASH 2012); cited from earlier work
[9] = system: indolent or aggressive lymphoma; experiment: Phase II study, single agent, response by lymphoma subtype; format: in vivo, human; conditions: for Best response CR/CRu, number of patients / Best response PD, number of patients / Best response PR, number of patients / Best response SD, number of patients: staged patients; for complete RR / overall response rate (RR): interim analysis
Protocol: In this Phase II study, patients with histologically confirmed indolent or aggressive lymphoma relapsed or refractory to ≥2 prior lines of treatment were eligible. Patients received COMPOUND OF FORMULA I at a dose of 0.8 mg/kg as a 1 hour infusion on days 1, 8 and 15 of a 28-day cycle. Patients continued on therapy until disease progression or unacceptable toxicity. Responses were assessed every two cycles according to the response criteria for lymphoma (Cheson et al, JCO 17:1244, 1999) or the guidelines for diagnosis and treatment of chronic lymphocytic leukemia (CLL; Hallek et al., Blood 111:5446-56, 2008).
As of May 31, 2013, a total of 61 lymphoma patients (27 indolent and 34 aggressive) were enrolled and 56 started study treatment. Patients were similarly distributed among indolent and aggressive cohorts with respect to gender (52% female), median age (68 yr, range 22-90) and ethnicity (76% Caucasian) and were heavily pretreated (median number of prior therapies: 3; prior Rituximab: 84%; prior ASCT: 20%). Other characteristics included advanced stage III-IV in 85% and B symptoms in 17%. The following entities were represented: follicular (FL; n=13); CLL (n=11); marginal zone (MZL; n=3; none re-staged); diffuse large B-cell (DLBCL; n=17); mantle cell (MCL; n=7); transformed (n=5); and peripheral T-cell (PTCL; n=4). At the time of analysis patients had received between 1 and 5 cycles of treatment. Objective responses were seen across histologic subtypes (Table 1). At the time of this interim analysis, the overall response rate (RR) and complete RR were 44% and 22% in FL, 83% and 17% in MCL, and 50% and 0% in PTCL, respectively.

[10] = system: DLBCL; conditions: patients with PD/patients; cited from earlier work
[11] = system: TMD-8 tumor cells; conditions: 20 mg/kg once daily po; day 29
Protocol: Untreated female 5-6 week old CB17.Scid mice are inoculated with 10×10^6 TMD-8 tumor cells (suspended in 50% Matrigel and 50% Medium) subcutaneously into the flank. Animals are randomized to treatment groups when tumors reach a tumor area of 30-35 mm^2. Treatment is conducted as described in FIG. 5 legend. Tumor area and animal body are recorded three times per week.
Tumor growth was monitored by determination of the tumor area using caliper measurement 3 times weekly. QD, once daily; SD, standard deviation of the mean; TGI, relative tumor growth inhibition vs control (%, tumor area at the end of the study on day 29)

SMILES: O=C1Nc2nc(-c3c(O)cccc3OCC3CC3)cc([C@@H]3CCCNC3)c2CO1 [BAY Compound B]
- feedback activation of p-IKKα/β ([1]; both HBL-1 and OCI-Ly3 cells): Activation of p-IKKα/β
- anti-proliferative activity profile across DLBCL cell lines [2]: more active in ABC-DLBCL compared with GCB-DLBCL cell lines

SMILES: COc1c(OCCCN2CCOCC2)ccc2c1N=C(NC(=O)c1cnc(N)nc1)N1CCN=C21 [COMPOUND A, 2-amino-N-[7-methoxy-8-(3-morpholin-4-ylpropoxy)-2,3-dihydroimidazo[1,2-c]quinazolin-5-yl]pyrimidine-5-carboxamide dihydrochloride]
- tumor reduction [3]: 39%
- PR (partial response) in follicular NHL [4]: 6/6
- half-life [5]: ~1 h

SMILES: COc1c(OCCCN2CCOCC2)ccc2c1N=C(NC(=O)c1cnc(N)nc1)N1CCN=C21 [COMPOUND OF FORMULA I, 2-amino-N-[7-methoxy-8-(3-morpholin-4-ylpropoxy)-2,3-dihydroimidazo[1,2-c]quinazolin-5-yl]pyrimidine-5-carboxamide]
- deaths ([6]; 1 progressive disease, 1 acute respiratory insufficiency, 1 Cryptococcal meningitis, 1 sepsis after salvage chemotherapy): Four
- toxicity profile ([6]; 1st line, 2nd line, relapsed, refractory lymphoma): acceptable toxicity profile
- cases of interstitial pneumonitis ([6]; both resolved following corticosteroid administration): two
- Hyperglycemia of any grade ([6]; in vivo): 47%
- Withdrawal of study drug due to AEs ([6]; in vivo): 10 patients
- colitis ([6]; in vivo): No case of colitis was reported
- grade 4 hyperglycemia ([6]; in vivo): no grade 4 hyperglycemia was observed
- grade 4 hypertension ([6]; in vivo): no grade 4 hypertension was reported
- patients who required a dose reduction ([6]; in vivo): 4 patients
- patients who required antihypertensive treatment ([6]; in vivo): Eight
- patients who required insulin therapy ([6]; in vivo): Four
- Diarrhea of any grade ([6]; of cases): 25%
- Grade 3/4 AE diarrhea ([6]; of patients): 5%
- Grade 3/4 AE fatigue ([6]; of patients): 5%
- Grade 3/4 AE hyperglycemia ([6]; of patients): 13%
- Grade 3/4 AE hypertension ([6]; of patients): 31%
- Grade 3/4 AE neutropenia ([6]; of patients): 16%
- Grade 3 adverse events (AE) ([6]; of patients): 49%
- Hypertension of any grade ([6]; of patients): 46%
- Withdrawal of study drug due to AEs ([6]; of patients): 16%
- grade 4 AE (all neutropenia) ([6]; of patients): 15%
- PR in follicular lymphoma [7]: 6/6
- maximum tolerated dose [8]: 0.8 mg/kg
- Best response CR/CRu, number of patients ([9]; CLL (n = 9)): 0
- Best response PD, number of patients ([9]; CLL (n = 9)): 1
- Best response PR, number of patients ([9]; CLL (n = 9)): 4
- Best response SD, number of patients ([9]; CLL (n = 9)): 4
- Best response CR/CRu, number of patients ([9]; DLBCL (n = 17)): 0
- Best response PD, number of patients ([9]; DLBCL (n = 17)): 8
- Best response PR, number of patients ([9]; DLBCL (n = 17)): 2
- Best response SD, number of patients ([9]; DLBCL (n = 17)): 7
- Best response CR/CRu, number of patients ([9]; FL (n = 9)): 2
- Best response PD, number of patients ([9]; FL (n = 9)): 0
- Best response PR, number of patients ([9]; FL (n = 9)): 2
- Best response SD, number of patients ([9]; FL (n = 9)): 5
- complete RR ([9]; FL): 22%
- overall response rate (RR) ([9]; FL, 0.8 mg/kg days 1, 8, 15 of 28-day cycle): 44%
- Best response CR/CRu, number of patients ([9]; MCL (n = 6)): 1
- Best response PD, number of patients ([9]; MCL (n = 6)): 1
- Best response PR, number of patients ([9]; MCL (n = 6)): 4
- Best response SD, number of patients ([9]; MCL (n = 6)): 0
- complete RR ([9]; MCL): 17%
- overall response rate (RR) ([9]; MCL): 83%
- Best response CR/CRu, number of patients ([9]; PTCL (n = 4)): 0
- Best response PD, number of patients ([9]; PTCL (n = 4)): 2
- Best response PR, number of patients ([9]; PTCL (n = 4)): 2
- Best response SD, number of patients ([9]; PTCL (n = 4)): 0
- complete RR ([9]; PTCL): 0%
- overall response rate (RR) ([9]; PTCL): 50%
- Best response CR/CRu, number of patients ([9]; Transformed (n = 5)): 0
- Best response PD, number of patients ([9]; Transformed (n = 5)): 2
- Best response PR, number of patients ([9]; Transformed (n = 5)): 1
- Best response SD, number of patients ([9]; Transformed (n = 5)): 2
- clinical activity ([9]; single agent, 1st line, 2nd line, relapsed, refractory lymphoma): clinically active as a single agent

SMILES: CC[C@H](Nc1ncnc2[nH]cnc12)c1nc2cccc(F)c2c(=O)n1-c1ccccc1 [GS-1101]
- feedback activation of p-ERK ([1]; HBL-1 cells): Activation of p-ERK
- decreased activity with respect to IC50 values ([2]; any mutations downstream of BCR): > 100 fold
- anti-proliferative activity profile across DLBCL cell lines [2]: active only in BCR-mutant cell lines without downstream mutations
- PD (progression of disease) in DLBCL patients [10]: 9/9

SMILES: C=CC(=O)N1CCC[C@@H](n2nc(-c3ccc(Oc4ccccc4)cc3)c3c(N)ncnc32)C1 [ibrutinib]
- feedback activation of p-ERK ([1]; both HBL-1 and OCI-Ly3 cells): Activation of p-ERK
- IC50 ([2]; BCR-mutant cell lines even in the presence of activating NFκB pathway): < 30 nM
- IC50 ([2]; cell lines without BCR-activating mutations (or complete inactivity)): > 1000 nM
- TGI (rel TA) [11]: 70%
